According to patent publication US11059801B2, “Methods to induce targeted protein degradation through bifunctional molecules” (Dana-Farber Cancer Institute, Inc., priority 2014, dated 2021):
Where two headings read alike, the source gives them in different places.

Legend:
CRBN-DDB1/BRD4 = CRBN-DDB1/BRD4 (Homo sapiens (Human), UniProt O60885+Q96SW2); assay: CRBN-DDB1/BRD4 Dimerization Assay; format: binding;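 also: AlphaScreen proximity signal between GST-tagged BRD4 and CRBN-DDB1 with glutathione donor and nickel chelate acceptor beads, read after 1 hr compound incubation at room temperature, values from Gaussian curve fit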
[1] = target: BRD4 adjoined to nanoluciferase (Nluc) (Homo sapiens (Human), UniProt O60885+Q96SW2); assay: BRD4 Dual Luciferase Assay; format: cell-based; conditions: for DC50: Dual Luciferase; for DC50 / pDC50 (dual luc): 4 hours
Procedure: Transduced cells were selected with puromycin and expanded. […] Cells were incubated with compound for 4 hours at 37° C., 5% CO2 and then allowed to cool to room temperature. To each plate was added 25 μL of Fluc buffer (200 mM Tris, 15 mM MgSO4, 100 uM EDTA, 1 mM DTT, 1 mM ATP, 200 uM Coenzyme A, 400 uM D-Luciferin, 0.1% Trition X-100).

BRD4 [2] = target: T1, BRD4 (Homo sapiens (Human), UniProt O60885); assay: BRD4 Cell Western (BRD4 levels in 293T cells, LiCOR); format: cell-based
Procedure: On the following day, dBET compounds were added at various concentrations. After being treated with the dBET compounds for 4 hours, cells were fixed with formaledhyde, permeabilized using 0.1% triton, blocked with LiCor blocking buffer, and incubated with the primary antibody (BRD4, 1:1000) overnight. On the following day, cells were washed (5×TBST) and stained using Odysee Cell Stain (1:500). A secondary antibody recoginizing the rabbit BRD4 antibody was added simultaneously (1:800). Images were quantified using LiCOR imager.

GST-FKBP12 (WT) = GST-FKBP12 (WT) (Homo sapiens (Human), UniProt P62942); assay: FKBP12 Ligand-Displacement AlphaScreen Assay (WT); format: binding; conditions: read-out: IC50 (nM) FKBP
GST-FKBP12 (WT), sequence (P62942 whole entry): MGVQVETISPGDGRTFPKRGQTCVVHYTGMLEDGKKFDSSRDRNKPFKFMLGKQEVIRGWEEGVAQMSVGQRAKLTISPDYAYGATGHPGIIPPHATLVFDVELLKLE
Procedure: (§1) Following a 30 min-incubation, 20 uL detection solution containing Streptavidin Donor Beads and Glutathione Acceptor Beads diluted to 20 ng/uL in assay buffer was added to each well. […] Percent activity values were calculated by setting the average background (no protein wells) to 0% the average DMSO wells to 100% activity. Standard deviations were determined from at least four replicate measurements for compound concentration.

GST-FKBP12 (36V) = GST-FKBP12 (36V) (Homo sapiens (Human), UniProt P62942, F36V); assay: FKBP12 Ligand-Displacement AlphaScreen Assay (36V); format: binding; conditions: read-out: IC50 (nM) FKBP 36V
GST-FKBP12 (36V), sequence (P62942 whole entry F37V, the tested form may be a part): as the sequence (P62942 whole entry) above, with F37V counted along it
Procedure: as §1

[3] = target: fusion of mutant FKBP12 to nanoluciferase (Homo sapiens (Human), UniProt P62942+Q96SW2, F36V); assay: FKBP Dual Luciferase Assay (mutant FKBP12, 36V); format: cell-based; conditions: 4 hours; for DC50: read-out: DC50 (nM) FKBP 36V;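 as to all read-outs here: cells exposed to rising degrader concentrations, FKBP12 fusion level read as NLuc/FLuc signal ratio, lower ratio means more degradation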
Procedure: (§2) The cells were treated with increasing concentrations of various dFKBPs for 4 hours. The amount of NLuc and FLuc was measured, and the abundance of the FKBP12-HA-NLuc was quantified by calculating the signal ratio of NLuc/FLuc.

[4] = target: fusion of FKBP12 to nanoluciferase (Homo sapiens (Human), UniProt P62942+Q96SW2); assay: FKBP Dual Luciferase Assay (FKBP12); format: cell-based; conditions: 4 hours
Procedure: as §2

BRD4 [5] = target: T1, BRD4; assay: BRD4 AlphaScreen; format: binding; conditions: Table 4-1
Procedure: Cells were grown at 37° C. to an OD of 0.8, induced with 500 μM isopropyl-1-thio-D-galactopyranoside, incubated overnight at 17° C., collected by centrifugation, and stored at −80° C. Cell pellets were sonicated in buffer A (50 mM hepes 7.5+300 mM NaCl+10% glycerol+10 mM Imidazole+3 mM BME) and the resulting lysate was centrifuged at 35,000×g for 40 min. […] The sample was then passed through a desalting column ( 26/10 column) equilibrate with buffer A (without imidazole), and the eluted protein was subjected to a second Ni-NTA step to remove His-tag and TEV. The eluant was concentrated and passed through a Superdex-200 10/300 column in 20 mM hepes7.5+150 mM NaCl+1 mM DTT. Fractions were pooled, concentrated to 14 mg/ml, and frozen at −80° C.
The data were analyzed using PRISM Graphpad v6 to obtain IC50 values.

NGP = assay: Cell viability, ATPlite, 72 hours; format: cell-based; conditions: NGP cells, Table 4-1
[6] = target: IKZF1 adjoined to nanoluciferase (Nluc) (Homo sapiens (Human), UniProt Q13422); assay: IKZF1 Dual Luciferase Assay; format: cell-based; conditions: 4 hours; read-out: Nluc/Fluc IKZF1 IC50
Procedure: Transduced cells were selected with puromycin at 2 μg/mL and expanded. […] Cells were incubated with compound for 4 hours at 37° C., 5% CO2 and then allowed to cool to room temperature. To each plate was added 25 μL of Fluc buffer (200 mM Tris, 15 mM MgSO4, 100 uM EDTA, 1 mM DTT, 1 mM ATP, 200 uM Coenzyme A, 400 uM D-Luciferin, 0.1% Trition X-100).

[7] = Gaussian fit of dimerization signal
[8] = Gaussian fit parameter of dimerization signal

Structure (SMILES)	Dimer Amplitude (CRBN-DDB1/BRD4; [7])	Dimer Mean (CRBN-DDB1/BRD4; [7])	Dimer SD (CRBN-DDB1/BRD4; [8])	Conc@Emax ([1]; concentration at Emax) [µM]	other results
Cc1sc2c(c1C)C(c1ccc(Cl)cc1)=N[C@@H](CC(=O)NCCCCOc1cccc3c1C(=O)N(C1CCC(=O)NC1=O)C3=O)c1nnc(C)n1-2 (stereo partly shown) [dBET28]	1752	−7.037	1.263	0.001581	
CCC(C)(C)C(=O)C(=O)N1CCC[C@H]1C(=O)O[C@H](CCc1ccc(OC)c(OC)c1)c1cccc(OCC(=O)NCCCCNC(=O)COc2cccc3c2C(=O)N(C2CCC(=O)NC2=O)C3=O)c1 (stereo partly shown) [c1FKBP-3]					IC50 (GST-FKBP12 (WT)): 1830 nM; IC50 (GST-FKBP12 (36V)): 1200 nM; Max Degradation (dual luciferase, %) FKBP 36V [3]: 12%; DC50 [4]: 19700 nM; Max Degradation (dual luciferase, %) FKBP [4]: 22%
Cc1sc2c(c1C)C(c1ccc(Cl)cc1)=N[C@@H](CC(=O)NCCCCCCOc1cccc3c1C(=O)N(C1CCC(=O)NC1=O)C3=O)c1nnc(C)n1-2 (stereo partly shown) [dBET29]	1454	−7.756	0.7393	0.05	
Cc1sc2c(c1C)C(c1ccc(Cl)cc1)=N[C@@H](CC(=O)NCCCCCCNC(=O)c1ccc3c(c1)C(=O)N(C1CCC(=O)NC1=O)C3=O)c1nnc(C)n1-2 (stereo partly shown) [dBET15]					Dimer Amplitude (CRBN-DDB1/BRD4): 13540; Dimer Mean (CRBN-DDB1/BRD4): −7.111; Dimer SD (CRBN-DDB1/BRD4): 0.6279; Conc@Emax [1]: 5 µM
CCC(C)(C)C(=O)C(=O)N1CCCC[C@H]1C(=O)O[C@H](CCc1ccc(OC)c(OC)c1)c1cccc(OCC(=O)NCCCCNC(=O)COc2cccc3c2C(=O)N(C2CCC(=O)NC2=O)C3=O)c1 (stereo partly shown) [c1FKBP-4]					IC50 (GST-FKBP12 (WT)): 408 nM; IC50 (GST-FKBP12 (36V)): 369 nM; Max Degradation (dual luciferase, %) FKBP 36V [3]: 21%; Max Degradation (dual luciferase, %) FKBP [4]: 34%
COc1ccc(CC[C@@H](OC(=O)[C@@H]2CCCCN2C(=O)Cc2ccccc2)c2cccc(OCC(=O)NCCCCNC(=O)COc3cccc4c3C(=O)N(C3CCC(=O)NC3=O)C4=O)c2)cc1OC (stereo partly shown) [c1FKBP-5]					IC50 (GST-FKBP12 (WT)): > 50000 nM; IC50 (GST-FKBP12 (36V)): 2290 nM; Max Degradation (dual luciferase, %) FKBP 36V [3]: <5%; DC50 [4]: 2970 nM; Max Degradation (dual luciferase, %) FKBP [4]: 11%
CC[C@H](C(=O)N1CCCC[C@H]1C(=O)O[C@H](CCc1ccc(OC)c(OC)c1)c1cccc(OCC(=O)NCCCCNC(=O)COc2cccc3c2C(=O)N(C2CCC(=O)NC2=O)C3=O)c1)c1cc(OC)c(OC)c(OC)c1 (stereo partly shown) [c1FKBP*-6]					IC50 (GST-FKBP12 (WT)): > 50000 nM; IC50 (GST-FKBP12 (36V)): 311 nM; DC50 ([3]; FKBP 36V): 1.3 nM
Cc1sc2c(c1C)C(c1ccc(Cl)cc1)=N[C@@H](CC(=O)NCCCCCCCCNC(=O)COc1cccc3c1C(=O)N(C1CCC(=O)NC1=O)C3=O)c1nnc(C)n1-2 (stereo partly shown) [dBET6]					IC50 (nM) NGP (NGP): 187/6
CC[C@@H]1C(=O)N(C)c2cnc(Nc3ccc(C(=O)NCCCCCCNC(=O)COc4cccc5c4C(=O)N(C4CCC(=O)NC4=O)C5=O)cc3OC)nc2N1C1CCCC1 (stereo partly shown) [dBET7]	31800	−6.18	0.4549	0.5	
CC[C@H](C(=O)N1CCCC[C@H]1C(=O)O[C@H](CCc1ccc(OC)c(OC)c1)c1cccc(OCC(=O)NCCCOCCOCCOCCCNC(=O)COc2cccc3c2C(=O)N(C2CCC(=O)NC2=O)C3=O)c1)c1cc(OC)c(OC)c(OC)c1 (stereo partly shown) [c1FKBP*-7]					IC50 (GST-FKBP12 (WT)): > 50000 nM; IC50 (GST-FKBP12 (36V)): 373 nM; DC50 ([3]; FKBP 36V): 0.5 nM
Cc1sc2c(c1C)C(c1ccc(Cl)cc1)=N[C@@H](CC(=O)NCCNC(=O)COc1cccc3c1C(=O)N(C1CCC(=O)NC1=O)C3=O)c1nnc(C)n1-2 (stereo partly shown) [dBET3]	16389	−7.497	0.6763	0.5	
Cc1sc2c(c1C)C(c1ccc(Cl)cc1)=N[C@@H](CC(=O)NCCOCCOc1cccc3c1C(=O)N(C1CCC(=O)NC1=O)C3=O)c1nnc(C)n1-2 (stereo partly shown) [dBET27]	11278	−7.202	0.7693	0.5	
CCC(C)(C)C(=O)C(=O)N1CCCC[C@H]1C(=O)O[C@H](CCc1ccc(OC)c(OC)c1)c1cccc(NC(=O)CCC(=O)NCCCCNC(=O)COc2cccc3c2C(=O)N(C2CCC(=O)NC2=O)C3=O)c1 (stereo partly shown) [dFKBP-1]					IC50 (GST-FKBP12 (36V)): 237 nM; DC50 ([3]; FKBP 36V): 153 nM; DC50 [4]: 11 nM
CC[C@H](C(=O)N1CCCC[C@H]1C(=O)O[C@H](CCc1ccc(OC)c(OC)c1)c1cccc(OCC(=O)NCCCCCCNC(=O)COc2cccc3c2C(=O)N(C2CCC(=O)NC2=O)C3=O)c1)c1cc(OC)c(OC)c(OC)c1 (stereo partly shown) [c1FKBP*-8]					IC50 (GST-FKBP12 (WT)): > 50000 nM; IC50 (GST-FKBP12 (36V)): 365 nM; DC50 ([3]; FKBP 36V): 0.8 nM; Dmax ([3]; FKBP 36V, read-out: Max Degradation (dual luciferase, %) FKBP 36V): 75%; Dmax ([4]; read-out: Max Degradation (dual luciferase, %) FKBP): < 5%
Cc1cnc(Nc2ccc(N3CCN(C(=O)CCCNC(=O)COc4cccc5c4C(=O)N(C4CCC(=O)NC4=O)C5=O)CC3)cc2)nc1Nc1cccc(S(=O)(=O)NC(C)(C)C)c1 (stereo not shown) [dBET20]					IC50 (BRD4 [5]): 5700 nM; pDC50 (dual luc) [1]: 6.686
O=C1CCC(N2C(=O)c3ccc([N+](=O)[O-])cc3C2=O)C(=O)N1 [Compound D-2, 2-(2,6-dioxopiperidin-3-yl)-5-nitroisoindoline-1,3-dione]					DC50 [6]: > 50 µM

More lines, main results first:

Dimer Amplitude (CRBN-DDB1/BRD4; [7])	Dimer Mean (CRBN-DDB1/BRD4; [7])	Dimer SD (CRBN-DDB1/BRD4; [8])	Conc@Emax ([1]; concentration at Emax) [µM]	Structure (SMILES)	other results
18644	−6.277	0.4127	1.581	Cc1sc2c(c1C)C(c1ccc(Cl)cc1)=N[C@@H](CC(=O)NCCCCCCNC(=O)COc1cccc3c1C(=O)N(C1CCC(=O)NC1=O)C3=O)c1nnc(C)n1-2 (stereo partly shown) [dBET5]	
12824	−7.349	0.5165	50	CC[C@@H]1C(=O)N(C)c2cnc(Nc3ccc(C(=O)NCCCOCCOCCOCCCNC(=O)COc4cccc5c4C(=O)N(C4CCC(=O)NC4=O)C5=O)cc3OC)nc2N1C1CCCC1 (stereo partly shown) [dBET10]	DC50 (BRD4 [2]): 58 nM
30326	−7.422	0.8533	50	Cc1c(C(=O)NCCCCNC(=O)COc2cccc3c2C(=O)N(C2CCC(=O)NC2=O)C3=O)sc2c1C(c1ccc(Cl)cc1)=N[C@@H](CC(=O)NCCCN1CCN(C)CC1)c1nnc(C)n1-2 (stereo partly shown) [dBET30]	DC50 [1]: 2100 nM; pDC50 (dual luc) [1]: 5.679
13116	−8.173	0.618	1.581	Cc1sc2c(c1C)C(c1ccc(Cl)cc1)=N[C@@H](CC(=O)NCCCN1CCN(C(=O)CCCCCNC(=O)COc3cccc4c3C(=O)N(C3CCC(=O)NC3=O)C4=O)CC1)c1nnc(C)n1-2 (stereo partly shown) [dBET18]	DC50 [1]: 243 nM; pDC50 (dual luc) [1]: 6.614; DC50 (BRD4 [2]): 196 nM
173.7	−6.366	3.287		COc1cc(C(=O)NCCCOCCOCCOCCCNC(=O)COc2cccc3c2C(=O)N(C2CCC(=O)NC2=O)C3=O)ccc1Nc1ncc2c(n1)N(C)c1ccccc1C(=O)N2C (stereo not shown) [dBET12]	IC50 (BRD4 [5]): 2080 nM
31348	−7.489	0.6531	5	Cc1sc2c(c1C)C(c1ccc(Cl)cc1)=N[C@@H](CC(=O)NCCOCCOCCNC(=O)COc1cccc3c1C(=O)N(C1CCC(=O)NC1=O)C3=O)c1nnc(C)n1-2 (stereo partly shown) [dBET24]	
32323	−7.374	0.6046	15.81	Cc1c(C(=O)NCCCCCCCCNC(=O)COc2cccc3c2C(=O)N(C2CCC(=O)NC2=O)C3=O)sc2c1C(c1ccc(Cl)cc1)=N[C@@H](CC(=O)NCCCN1CCN(C)CC1)c1nnc(C)n1-2 (stereo partly shown) [dBET31]	
1722	−7.069	1.225	15.81	Cc1c(CC#N)sc2c1C(c1ccc(Cl)cc1)=N[C@@H](CC(=O)NCCCCNC(=O)COc1cccc3c1C(=O)N(C1CCC(=O)NC1=O)C3=O)c1nnc(C)n1-2 (stereo partly shown) [dBET19]	
